Patent publication US20230218573A1, “INDOLE COMPOUNDS FOR THE TREATMENT OF NEURODEGENERATIVE DISEASES” (GALYAN BIO, INC., priority 2020, published 2023)

Columns and labels:
[1] = test system: STHdh 111/111 striatal cells; test: Cell viability (CellTiter Glo) of heat shocked STHdh 111/111 striatal cells; assay type: cell-based, mouse
Method: Cell culture - ST HDH Q111/111 (CH00095, Coriell Institute) striatal derived cell line were grown at 33° C. in DMEM (Sigma-Aldrich), supplemented with 10% fetal bovine serum (FBS), 1% Penicillin-Streptomycin (ThermoFisher Scientific), and 0.4 mg/ml G418 (Geneticin; Invitrogen). ST HDH Q111/111 are mouse striatal cells with polyQ length of 1111.
Pre-Treatment of striatal cell line - First the medium was removed and new DMEM (DMEM, high glucose, HEPES, no phenol red) medium, supplemented with 10% fetal bovine serum (FBS), 1% Penicillin-Streptomycin, containing 10 µM compound was added. The cells were incubated at 33° C. for 24 hours.
Heat shock - Cells were heat shocked for 3 hours at 41° C.
Treatment - Medium was removed and new DMEM (DMEM, high glucose, HEPES, no phenol red) medium, supplemented with 1% fetal bovine serum (FBS), 1% Penicillin-Streptomycin, containing 10 µM compound was added. The cells were incubated at 33° C. for 48 hours.
Cell Viability - Cell viability was measured according to manufacturer recommendations with CellTiter Glo (Promega). 96-well plates for used either for cell viability determination or cell staining.

[2] = Body weight of R6/2 mice under chronic administration; assay type: in vivo
Method: Methods - Total of 20 female and male R6/2 mice and 10 female and male wild-type littermate control mice (WT) were used in the study. The mice were genotyped and the R6/2 mice were divided into different treatment groups based on their litter and baseline body weight. The treatment with Vehicle or Compound 22(33 mg/kg; 5 ml/kg, i.p. QD) was started at 4 weeks of age after the baseline behavioral tests (FIG. 10). Body weights were measured at 3 weeks of age and twice a week until the end of the study.
The experimental groups were: • Group 1) 10 wild-type mice (mixed gender) treated with Vehicle (5 ml/kg, i.p., QD) starting at 4 weeks of age • Group 2) 10 R6/2 mice (mixed gender) treated with Vehicle (5 ml/kg, i.p., QD) starting at 4 weeks of age • Group 3) 10 R6/2 mice (mixed gender) treated with Compound 22 (33 mg/kg; 5 ml/kg, i.p. QD) starting at 4 weeks of age
44.3.7 - Compound Delivery and Dosing - Treatment with Compound 22 (33 mg/kg; 5 ml/kg, i.p. QD) or Vehicle was started at age week 4 and continued until the 12 weeks of age. The test articles were handled and stored and the dose formulations were prepared according to detailed instructions provided by the Sponsor.
44.3.8 - Body Weight - Body weight was measured starting at 3 weeks of age before treatment onset and two times per week on the same day (on Monday and Friday) until the end of the study.

[3] = test system: LC3 (autophagic flux); test: Autophagic flux and LC3 stained area in STHdh 111/111 cells; assay type: cell-based, mouse
Method: Staining - Cells were permeabilized with 0.3% Triton X-100 in 4° C. PBS (pH 7.4 from ThermoFisher) for 10 minutes. Then the cells were washed two times with 4° C. PBS. Subsequently, cells are blocked with 3% NGS (normal goat serum from Thermo Fisher) in 4° C. PBS for 1 hour. Cells were incubated with primary antibodies in blocking buffer (PBS, 3% NGS, 0.02% NaN3) over night at 4° C. Primary antibodies were mouse antipolyglutamine monoclonal antibody 3B5H10 (Sigma-Aldrich) at 1:250 dilution and Guinea Pig anti-MAP2 polyclonal antibody (Synaptic Systems) at 1:500 dilution. […]
Fluorescence Imaging - Imaging sessions were performed on a confocal microscope system (Carl Zeiss Microscopy) equipped with a dual spinning disk unit (Yokogawa). […] The fluorescence images obtained of the immunofluorescence labelled tissue sections were quantified with the help of the “Image Processing and Analysis in Java” or short ImageJ software distributed under the GNU General Public License by the NIH (Rueden, C.T. et al., BMC Bioinformatics. 2017 Nov 29;18(1):529), i.e. the edition used was the Fiji distribution (Schindelin, J. et al., Nature methods. 2012 Jun 28;9(7):676-82). […]
Autophagic flux was calculated as the area stained with LC3 antibody per cell in STHdh 111/111 with autophagy inhibitor NH4Cl minus area stained with LC3 antibody per cell in STHdh 111/111 without the autophagy inhibitor NH4Cl.

[4] = test system: Slc32a1; test: Nanostring gene expression in STHdh 111/111 cells: Slc32a1; assay type: cell-based, mouse; conditions: treated STHdh 111/111 (Q111-10), 48 h; in comparison to untreated STHdh 111/111
Method: (§1) Gene expression of certain transcripts of interest were measured using Nanostring Technology. […] Some STHdh 7/7 and STHdh 111/111 cell samples were not heat shocked and some wells were treated with Compound 22 at the indicated concentration on for 48 hours (Table 12). Some STHdh 7/7 and STHdh 111/111 cell samples were heat shocked for 3 hours some wells were treated with Compound 22 at the indicated concentration on for 48 hours (Table 13). Cells are washed with PBS, trypsinised, and gathered in a 15 ml falcon tube. After a short spin down for 3 minutes at 300 g, the cell pellet was washed with PBS once, before it was frozen down in liquid nitrogen. RNA was extracted with a standard protocol. The nCounter® Mouse Neuropathology Panel (Nanostring, Seattle) was used for gene expression analysis according to the manufacturer’s protocols.

[5] = test system: Olig2; test: Nanostring gene expression in STHdh 111/111 cells: Olig2; assay type: cell-based, mouse; conditions: treated STHdh 111/111 (Q111-10), 48 h; in comparison to untreated STHdh 111/111
Method: as §1

[6] = test system: NGFR; test: Nanostring gene expression in STHdh 111/111 cells: NGFR; assay type: cell-based, mouse; conditions: treated STHdh 111/111 (Q111-10), 48 h; in comparison to untreated STHdh 111/111
Method: as §1

[7] = test system: KCNA1; test: Nanostring gene expression in STHdh 111/111 cells: Kcna; assay type: cell-based, mouse; conditions: treated STHdh 111/111 (Q111-10), 48 h; in comparison to untreated STHdh 111/111
Method: as §1

[8] = Microsomal stability in humans; assay type: in vitro ADME; conditions: humans versus mice

For `Cc1[nH]c2ccc(C(=O)NCCN(C(C)C)C(C)C)cc2c1C` [Compound 22], the viability at 10 µM ([1]; Mus musculus, STHdh 111/111, 10 µM, 48 hours treatment, read-out: Cell Viability striatal cells 3h heat shocked) was 102%, the “cell viability in comparison to pre-heat shock cell viability” value ([1]; STHdh 111/111, 48 hours after 3 hours heat shock) was 125% and the “cell viability at 24 hours after treatment” value ([1]; STHdh 111/111 after heat shock, versus STHdh 7/7 control cells) was “almost equivalent to the cell viability of STHdh 7/7 control cells”. The “body weight versus vehicle treated R6/2 mice” value ([2]; 33 mg/kg i.p. QD from 4 to 12 weeks of age, pooled genders, females, males) was “no significant differences”, the “body weight loss versus untreated female R6/2 mice” value ([2]; female R6/2 mice, week 12, 33 mg/kg i.p. QD) was “significantly improved” and the “body weight loss improvement versus untreated male R6/2 mice” value ([2]; male R6/2 mice, week 12, 33 mg/kg i.p. QD) was “not observed”. The autophagic flux ([3]; STHdh 111/111, LC3 area with NH4Cl minus without NH4Cl) was “positive autophagic flux”, the LC3 stained area ([3]; STHdh 111/111 neurons) was “decreased” and the Slc32a1 expression upregulated [4] was 12 fold. For the same molecule, the Olig2 expression [5] was “doubled”, the “NGFR expression increased by” value [6] was 60% and the “Kcna1 expression increased by” value [7] was 68%. The “microsomal stability in humans in comparison to mice” value [8] was 20 times.
